Experimental data: patent US20240327359A1, “3-ISOXAZOLIDINONE COMPOUND, PREPARATION METHOD, HERBICIDAL COMPOSITION AND APPLICATION THEREOF” (QINGDAO KINGAGROOT CHEMICAL COMPOUND CO., LTD., priority 2021, published 2024)

Tests used:
Assay type in all cases: in vivo
Descurainia sophia = assay: Weeding effect in pre-emergence stage; conditions: 2 weeks
Text: (§1) The activity level criteria for plant damage (i.e., growth control rate) are as follows:
(§2) The above growth control rates are fresh weight control rates.
(§3) Monocotyledonous and dicotyledonous weed seeds (Descurainia sophia, Capsella bursa-pastoris, Abutilon theophrasti, Galium aparine, Stellaria media, Lithospermum arvense, Rorippa indica, Alopecurus aequalis, Alopecurus japonicus, Eleusine indica, Beckmannia syzigachne, Sclerochloa dura, Phleum paniculatum, Veronica didyma, Bromus japonicus, Aegilops tauschii, Phalaris arundinacea, Amaranthus retroflexus, Chenopodiaceae, Commelina communis, Sonchus arvensis, Convolvulus arvensis, Cirsium setosum, Solanumnigrum, Acalypha australis, Digitaria sanguinalis, Echinochloa crusgalli, Setaria viridis, Setaria glauca, Leptochloa chinensis, Monochoria vaginalis, Sagittaria trifolia, Scirpus juncoides, Cyperus rotundus, Cyperus iria, Cyperus difformis, Fimbristylis, Portulaca oleracea, Xanthium sibiricum, Pharbitis nil, Conyza Canadensis, etc.) and major crop seeds (wheat, corn, rice, soybean, cotton, oilseed rape, millet, sorghum, potato, sesame, ricinus, etc.) were placed in plastic pots filled with soil, then covered with 0.5-2 cm of soil, allowed to grow in a good greenhouse environment. The test plants were treated on the day of sowing. The tested compounds of the present invention were respectively dissolved in acetone, then added with Tween 80, diluted with a certain amount of water to obtain a solution of a certain concentration, and sprayed by a spray tower onto the plants. After the application, the plants were cultured for 2 weeks in the greenhouse, and then the experimental results of the weeding were recorded. The doses of the used compounds were 3, 6, 12, 24, 48 g ai./mu (1 mu=1/15 ha), and the averages were obtained from three replicates.

Echinochloa crusgalli [1] = assay: Weeding effect in pre-emergence stage; conditions: 2 weeks
Text: as §1, §2, §3

Leptochloa chinensis = assay: Weeding effect in pre-emergence stage; conditions: 2 weeks
Text: as §1, §2, §3

Lolium perenne = assay: Weeding effect in pre-emergence stage; conditions: 2 weeks
Text: as §1, §2, §3

Veronica didyma = assay: Weeding effect in pre-emergence stage; conditions: 2 weeks
Text: as §1, §2, §3

[2] = system: Echinochloa crusgalli, Leptochloa chinensis, Digitaria sanguinalis, Descurainia Sophia, Capsella bursa-pastoris, Galium aparine, Stellaria media, Lolium …; assay: Field test, weed control; conditions: applied after planting and pre-emergence at 300 g a.i./ha
Galium aparine = assay: Activity test of the compositions, post-emergence treatment by foliage spray; conditions: foliage (F), A 16 g a.i./mu
Procedure: The desired active ingredient B was purchased from a reagent company or synthesized by a known method. The technical materials were all dissolved in acetone and diluted with an aqueous solution containing 0.10% emulsifier Tween-80 which were to be used immediately after dilution.
Weeds were cultivated by a pot culture method. […] Weed seeds with plump and uniform grains were selected, soaked in lukewarm water at 25° C. for 6 hours, and germinated in a 28° C. biochemical incubator (in darkness). The weed seeds that had just germinated were evenly placed on the surface of the soil and then covered with 0.5-1 cm soil according to the sizes of seeds.
Each treatment was repeated 4 times. Four pots with 20 weed seeds per pot were treated each time.
The agents were used for only once in total in the experiment. In the stage of 1.5-2 leaves, the weeds were thinned out to maintain 10 weeds per pot. Ten weeds were kept in each treatment, then continued to be cultured until Echinochloa crus-galli var. zelayensis reached the stage of 2-3 leaves, Cirsium setosum reached the stage of 5-6 leaves, Galium aparine reached the stage of 3-4 whorl leaves, Amaranthus retroflexus reached the stage of 3-5 leaves, Echinochloa crusgalli, Lolium multiflorum and Digitaria sanguinalis reached the stage of 3 leaves with one leaf not fully expanding for further treatment.
The well-cultured test materials were evenly placed on a platform with an area of 0.5 m^2, and solution of agents was sprayed on the stems and leaves thereof by the 3WP-2000-type walking spray tower at a dosage of 450 kg/ha and at a spray pressure of 0.3 MPa. After all the solution was sprayed, the valve was closed. After 30 seconds, the door of the spray tower was opened, and the nutritional bowl was taken out. Then the valve was opened, and the spray tube was cleaned by spraying 50 ml of water. After the treatment, the weeds were routinely cultured in a greenhouse.
A method for investigating absolute numbers was employed. Whole seedlings of survival weeds were cut off with a blade along the soil surface, and the fresh weight of the weeds was weighed with an analytical balance. For dead weeds, the fresh weight thereof was zero.
The investigation was performed 21 days after the treatment for only once in total.

Amaranthus retroflexus = assay: as above; conditions: foliage (F)
Cirsium setosum = assay: as above; conditions: foliage (F), A 32 g a.i./mu
Digitaria sanguinalis = assay: as above
[3] = system: Echinochloa crus-galli var. zelayensis; assay: as above; conditions: Echinochloa crusgalli var. zelayensis; foliage (F); A 16 g a.i./mu
Echinochloa crusgalli [4] = assay: as above; conditions: foliage (F), A 16 g a.i./mu
Lolium multiflorum = assay: as above; conditions: foliage (F), A 16 g a.i./mu

CC1(C)CON(Cc2ccc(Cl)cc2Br)C1=O [Compound 1]
weeding effect in pre-emergence stage, activity level (growth control rate) (Descurainia sophia; 3 g a.i./mu): 7 (Level 7: growth control rate is greater than or equal to 70% and less than 80%) | weeding effect in pre-emergence stage, activity level (growth control rate) (Descurainia sophia; 6 g a.i./mu): 9 | weeding effect in pre-emergence stage, activity level (growth control rate) (Descurainia sophia; 12 g a.i./mu): 9 | weeding effect in pre-emergence stage, activity level (growth control rate) (Descurainia sophia; 24 g a.i./mu): 9 | weeding effect in pre-emergence stage, activity level (growth control rate) (Echinochloa crusgalli [1]; 3 g a.i./mu): 8 (Level 8: growth control rate is greater than or equal to 80% and less than 100%) | weeding effect in pre-emergence stage, activity level (growth control rate) (Echinochloa crusgalli [1]; 6 g a.i./mu): 9 | weeding effect in pre-emergence stage, activity level (growth control rate) (Echinochloa crusgalli [1]; 12 g a.i./mu): 9 | weeding effect in pre-emergence stage, activity level (growth control rate) (Echinochloa crusgalli [1]; 24 g a.i./mu): 9 | weeding effect in pre-emergence stage, activity level (growth control rate) (Leptochloa chinensis; 3 g a.i./mu): 9 | weeding effect in pre-emergence stage, activity level (growth control rate) (Leptochloa chinensis; 6 g a.i./mu): 9 | weeding effect in pre-emergence stage, activity level (growth control rate) (Leptochloa chinensis; 12 g a.i./mu): 9 | weeding effect in pre-emergence stage, activity level (growth control rate) (Leptochloa chinensis; 24 g a.i./mu): 9 | weeding effect in pre-emergence stage, activity level (growth control rate) (Lolium perenne; 6 g a.i./mu): 2 (Level 2: growth control rate is greater than or equal to 15% and less than 30%) | weeding effect in pre-emergence stage, activity level (growth control rate) (Lolium perenne; 24 g a.i./mu): 9 | weeding effect in pre-emergence stage, activity level (growth control rate) (Veronica didyma; 6 g a.i./mu): 8 (Level 8: growth control rate is greater than or equal to 80% and less than 100%) | weeding effect in pre-emergence stage, activity level (growth control rate) (Veronica didyma; 12 g a.i./mu): 9 | weeding effect in pre-emergence stage, activity level (growth control rate) (Veronica didyma; 24 g a.i./mu): 9 | control of major weeds in field test [2]: effectively controls | Control effect (%) of A applied alone (A) (Galium aparine): 55.4% | Control effect (%) of A applied alone (A) (Amaranthus retroflexus; A 8 g a.i./mu): 36.7% | Control effect (%) of A applied alone (A) (Amaranthus retroflexus; A 16 g a.i./mu): 36.7% | Control effect (%) of A applied alone (A) (Cirsium setosum): 64.2% | Control effect (%) of A applied alone (A) (Digitaria sanguinalis; foliage (F), A 16 g a.i./mu): 42.3% | Control effect (%) of A applied alone (A) (Digitaria sanguinalis; foliage treatment (F), A at 16 g a.i./mu, fresh weight inhibition 21 days after treatment): 42.3% | Control effect (%) of A applied alone (A) [3]: 43.6% | Control effect (%) of A applied alone (A) (Echinochloa crusgalli [4]): 46.2% | Control effect (%) of A applied alone (A) (Lolium multiflorum): 56.7%
